# Experimental data taken from the supplement of paper PMC8967900.
# Columns and labels:
# Test in all cases: selective drug sensitivity score (sDSS, relative to normal bone marrow) (sDSS (score)); higher = more potent and effective on the cell line relative to normal bone marrow cells
# Conditions in all cases: 72 h
# RPMI-8402 = test system: RPMI-8402
# SUP-B15 = test system: SUP-B15
# KASUMI-2 = test system: KASUMI-2
# RCH-ACV = test system: RCH-ACV
# NALM-16 = test system: NALM-16
# KASUMI-9 = test system: KASUMI-9
# COG-LL-355h = test system: COG-LL-355h
# COG-LL-402h = test system: COG-LL-402h
# TMD5 = test system: TMD5
# MOLT-16 = test system: MOLT-16
# ALL-PO = test system: ALL-PO
# NALM-6 = test system: NALM-6
# MOLT-4 = test system: MOLT-4
# COG-LL-319h = test system: COG-LL-319h
# MOLT-14 = test system: MOLT-14
# 697 = test system: 697
# PEER = test system: PEER
# MN-60 = test system: MN-60
# HPB-ALL = test system: HPB-ALL
# JURKAT = test system: JURKAT
# 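Note: ALL cell lines in 384-well plates, five doses spanning 10,000-fold, each plate scaled between vehicle and 100 µmol/L benzalkonium chloride controls, sDSS an adapted area-under-curve metric.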
SMILES,selective drug sensitivity score (RPMI-8402),selective drug sensitivity score (SUP-B15),selective drug sensitivity score (KASUMI-2),selective drug sensitivity score (RCH-ACV),selective drug sensitivity score (NALM-16),selective drug sensitivity score (KASUMI-9),selective drug sensitivity score (COG-LL-355h),selective drug sensitivity score (COG-LL-402h),selective drug sensitivity score (TMD5),selective drug sensitivity score (MOLT-16),selective drug sensitivity score (ALL-PO),selective drug sensitivity score (NALM-6),selective drug sensitivity score (MOLT-4),selective drug sensitivity score (COG-LL-319h),selective drug sensitivity score (MOLT-14),selective drug sensitivity score 697,selective drug sensitivity score (PEER),selective drug sensitivity score (MN-60),selective drug sensitivity score (HPB-ALL),selective drug sensitivity score (JURKAT)
Cc1cc2c(C(=O)NC[C@H](C)c3ccccc3)c(O)c(O)cc2c(O)c1-c1c(C)cc2c(C(=O)NC[C@H](C)c3ccccc3)c(O)c(O)cc2c1O [Sabutoclax] (top concentration 25000 nM),4.38,16,11.3,16.8,6.78,14.9,15.6,15.3,-7.42,17.6,12.2,14.3,9.18,10.8,16.8,15.9,14.5,13,19.4,16.7
NC(=O)c1cccc(-c2cccc(OC(=O)NC3CCCCC3)c2)c1 [URB597] (top concentration 1000 nM),-0.46,0.94,-0.46,-0.46,-0.46,0.04,-0.06,-0.46,-0.46,2.34,-0.46,2.44,-0.46,5.14,-0.46,-0.36,-0.46,-0.46,-0.26,-0.46
C[C@@H](Oc1cc(-c2cnn(C3CCNCC3)c2)cnc1N)c1c(Cl)ccc(F)c1Cl [Crizotinib] (top concentration 1000 nM),-0.54,3.86,-0.54,-0.54,-0.54,-0.54,2.16,-0.54,1.66,-0.54,1.46,0.96,-0.54,-0.54,-0.54,-0.24,1.86,-0.54,-0.54,-0.54
COC(=O)c1ccc([C@H]2c3[nH]c4ccccc4c3C[C@H](C(=O)OC)N2C(=O)CCl)cc1 [RSL3] (top concentration 10000 nM),1.2,0,0,4.5,0,0,3.8,0,0,0,0,1.5,0,0,0,0,0,0,0.4,0
CCN(CC)CCCC(C)Nc1ccnc2cc(Cl)ccc12 (stereo not given) [Chloroquine] (top concentration 100000 nM),-1.74,-4.14,-8.14,-0.14,-5.24,-1.94,-0.34,-3.94,-4.54,-3.14,-1.64,-2.74,-7.24,-5.84,-2.84,-2.14,-0.94,-2.74,-6.64,-5.04
CCC(C)(C)C(=O)O[C@H]1C[C@@H](C)C=C2C=C[C@H](C)[C@H](CC[C@@H]3C[C@@H](O)CC(=O)O3)[C@H]21 [Simvastatin] (top concentration 10000 nM),2.08,-0.72,-0.72,2.18,-0.72,4.18,3.48,0.08,5.78,2.18,-0.72,0.08,-0.72,0.68,-0.22,-0.22,1.48,-0.72,0.38,-0.52
C[C@]12CC[C@H](O)CC1=CC[C@@H]1[C@@H]2CC[C@]2(C)C(c3cccnc3)=CC[C@@H]12 [Abiraterone] (top concentration 5000 nM),-0.12,-0.02,-0.12,-0.02,-0.12,-0.12,-0.12,-0.12,-0.12,1.28,3.48,-0.12,-0.12,0.08,-0.12,-0.12,-0.12,-0.12,-0.12,0.18
CCc1cc2c(cc1N1CCC(N3CCOCC3)CC1)C(C)(C)c1[nH]c3cc(C#N)ccc3c1C2=O [Alectinib] (top concentration 1000 nM),2.08,-0.22,1.08,4.98,-0.22,0.88,-0.02,1.48,-0.22,-0.22,7.28,1.28,-0.22,2.48,1.08,2.48,0.78,0.98,-0.22,-0.22
COc1cc(NS(C)(=O)=O)ccc1Nc1c2ccccc2nc2ccccc12 [Amsacrine] (top concentration 10000 nM),14.4,23.6,21.7,24.7,0.66,16,11,16.8,3.86,27.1,5.66,10.7,21.3,18.2,18.8,20.6,3.16,-1.84,2.56,7.96
